Broadly, the ED50 is the midpoint of the dose-response relation. The term IC50 denotes the point on the concentration scale where inhibition reaches its midpoint. A low value points to greater potency.

This passage reports ED50, IC50 and SDL results from ChEMBL document CHEMBL1125697, “Synthesis and pharmacological examination of 1-(3-methoxy-4-methylphenyl)-2-aminopropane and 5-methoxy-6-methyl-2-aminoindan: similarities to 3,4-(methylenedioxy)methamphetamine (MDMA)” (J Med Chem, 1991).

What all share (type): functional
Assay [1] concerns Rattus norvegicus. Description: Effective dose was evaluated for drug discrimination in I-trained rats, when given at a dose of 0.25 mg/kg. The conditions noted are these: Rattus norvegicus; read-out: ED50.
Assay [2] deals with Rattus norvegicus. Description: Effective dose was evaluated for drug discrimination in I-trained rats, when given at a dose of 1.16 micro mol/kg.
The species entered for assay [3] is Rattus norvegicus. Description: Compound was evaluated for the uptake inhibition of [3H]-5-HT in rats.
Assay [4] deals with Rattus norvegicus. Nature of the assay: Percentage of non disrupted rats that selected the drug lever, when given at a dose of 0.25 mg/kg.
In assay [5] the test system is Rattus norvegicus. Nature of the assay: Percentage of non disrupted rats that selected the drug lever, when given at a dose of 0.5 mg/kg.
The subject of assay [6] is Rattus norvegicus. Nature of the assay: Percentage of non disrupted rats that selected the drug lever, when given at a dose of 0.75 mg/kg.
For assay [7], the species on record is Rattus norvegicus. Description: Effective dose was evaluated for drug discrimination in I-trained rats.

Several values for one entry are separate records, joined by “and”; a condition that tells them apart may be missing. Equal entries are not always repeated.

In the case of `COc1cc(C[C@H](C)N)ccc1C`, the results for the ED50 in the assay with Rattus norvegicus [1] and in the assay on Rattus norvegicus [2] were 0.46 mg/kg and 2.14 µmol/kg, respectively. For the same compound, in the assay filed under Rattus norvegicus [3], half-maximal inhibition (IC50) was put at 0.099 µM. Also, the SDL turned out to be 17% in the assay with Rattus norvegicus [4], 33% in the assay with Rattus norvegicus [5] and 100% in the assay with Rattus norvegicus [6].

For `COc1cc(CC(C)N)c(OC)cc1C` (centres undefined) [DOM], it took 10.7 µM to reach half-maximal inhibition in the assay filed under Rattus norvegicus [3] (IC50).

`CNC(C)Cc1ccc2c(c1)OCO2` (centres undefined) [MIDOMAFETAMINE]: in the assay filed under Rattus norvegicus [7], the ED50 was 0.64 mg/kg and 2.79 µmol/kg.

Take `C[C@H](N)Cc1ccccc1` [DEXTROAMPHETAMINE]: in the assay filed under Rattus norvegicus [7], the ED50 was 0.31 mg/kg and 1.69 µmol/kg.
